Where two headings read alike, the source gives them in different places.
Key:
CB1 receptor = biological target: T1, CB1 receptor (Homo sapiens, UniProt P21554); assay: [35S]-GTPγS binding assay, inhibition of CP55940 (EC80) stimulated activity in membranes of cells stably transfected with the CB1 gene; type: biochemical
T1 construct: expressed in transfected cells
Experimental: 10 μg of membranes prepared from cells stably transfected with the CB1 gene were suspended in 200 μl of 100 mM NaCl, 5 mM MgCl2, 1 mM EDTA, 50 mM HEPES (pH 7.4), 1 mM DTT, 0.1% BSA and 100 μM GDP. To this was added an EC80 concentration of agonist (CP55940), the required concentration of test compound and 0.1 μCi [^35S]-GTPγS. The reaction was allowed to proceed at 30° C. for 45 min. Samples were then transferred on to GF/B filters using a cell harvester and washed with wash buffer (50 mM Tris (pH 7.4), 5 mM MgCl2, 50 mM NaCl). Filters were then covered with scintilant and counted for the amount of [^35S]-GTPγS retained by the filter.
Activity is measured in the absence of all ligands (minimum activity) or in the presence of an EC80 concentration of CP55940 (maximum activity). These activities are set as 0% and 100% activity respectively. At various concentrations of novel ligand, activity is calculated as a percentage of the maximum activity and plotted. The data are fitted using the equation y=A+((B−A)/1+((C/x)ÚD)) and the IC50 value determined as the concentration required to give half maximal inhibition of GTPγS binding under the conditions used.

[1] = Solubility in dimethyl sulfoxide; type: physicochemical; details: organic solvent dimethyl sulfoxide
Text: The compounds of the present invention have improved solubility in organic solvents compared to compounds in the prior art. […] It would be expected that this increase in solubility in organic solvents would lead to improvements in bioavailability and ease of manufacture and formulation.

[2] = half maximal inhibition of GTPγS binding, EC80 concentration of agonist CP55940, 30° C. 45 min, read-out: IC50

T1 sequence (P21554 whole entry): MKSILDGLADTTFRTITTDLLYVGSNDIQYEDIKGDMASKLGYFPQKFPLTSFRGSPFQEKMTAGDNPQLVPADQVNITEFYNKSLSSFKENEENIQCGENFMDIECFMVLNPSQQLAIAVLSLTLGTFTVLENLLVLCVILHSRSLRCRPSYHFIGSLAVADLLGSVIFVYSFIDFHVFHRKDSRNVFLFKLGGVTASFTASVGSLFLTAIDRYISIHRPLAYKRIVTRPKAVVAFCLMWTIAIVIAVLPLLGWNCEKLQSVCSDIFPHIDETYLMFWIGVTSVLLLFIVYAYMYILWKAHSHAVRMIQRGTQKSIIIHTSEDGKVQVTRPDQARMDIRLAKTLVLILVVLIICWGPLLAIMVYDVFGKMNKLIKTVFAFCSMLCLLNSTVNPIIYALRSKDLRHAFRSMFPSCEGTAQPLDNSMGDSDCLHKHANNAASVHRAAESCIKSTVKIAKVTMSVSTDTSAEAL

Compound	IC50 (CB1 receptor; [2])	other results
Cc1c2c(n(-c3ccc(Cl)cc3Cl)c1-c1ccc(/C=C/CCC(F)(F)F)cc1)CCN(N1CCCCC1)C2=O [Example 3, 1-(2,4-dichlorophenyl)-3-methyl-5-piperidin-1-yl-2-{4-[5,5,5-trifluoropent-1-en-1-yl]phenyl}-1,5,6,7-tetrahydro-4H-pyrrolo[3,2-c]pyridin-4-one]	5 nM	–
CCC/C=C/c1ccc(-c2c(C)c3c(n2-c2ccc(Cl)cc2Cl)CCN(N2CCCCC2)C3=O)cc1 [Example 5, 1-(2,4-dichlorophenyl)-3-methyl-2-{4-[pent-1-en-1-yl]phenyl}-5-piperidin-1-yl-1,5,6,7-tetrahydro-4H-pyrrolo[3,2-c]pyridin-4-one]	2.1 nM	–
CCCCCc1ccc(-c2c(C)c3c(n2-c2ccc(Cl)cc2Cl)CCN(N2CCCCC2)C3=O)cc1 [Example 6, 1-(2,4-dichlorophenyl)-3-methyl-2-(4-pentylphenyl)-5-piperidin-1-yl-1,5,6,7-tetrahydro-4H-pyrrolo[3,2-c]pyridin-4-one]	–	IC50 (CB1 receptor): 2.1 nM
Cc1c2c(n(-c3ccc(Cl)cc3Cl)c1-c1ccc(Cl)cc1)CCN(N1CCCCC1)C2=O [Example 19 of WO03/027114, 2-(4-chlorophenyl)-1-(2,4-dichlorophenyl)-3-methyl-5-(1-piperidinyl)-1,5,6,7-tetrahydro-4H-pyrrolo-[3,2-c]pyridin-4-one]	–	solubility in dimethyl sulfoxide [1]: insoluble

Further lines, with some results ahead:

IC50 (CB1 receptor; [2])	Compound	other results
5.1 nM	Cc1c2c(n(-c3ccc(Cl)cc3Cl)c1-c1ccc(CN3CCC(F)(F)C3)cc1)CCN(N1CCCCC1)C2=O [Example 1, 1-(2,4-dichlorophenyl)-2-{4-[(3,3-difluoropyrrolidin-1-yl)methyl]phenyl}-3-methyl-5-piperidin-1-yl-1,5,6,7-tetrahydro-4H-pyrrolo[3,2-c]pyridin-4-one]	–
7.5 nM	Cc1c2c(n(-c3ccc(Cl)cc3Cl)c1-c1ccc(CN3CC(F)(F)C3)cc1)CCN(N1CCCCC1)C2=O [Example 2, 1-(2,4-dichlorophenyl)-2-{4-[(3,3-difluoroazetidin-1-yl)methyl]phenyl}-3-methyl-5-piperidin-1-yl-1,5,6,7-tetrahydro-4H-pyrrolo[3,2-c]pyridin-4-one]	–
2.5 nM	Cc1c2c(n(-c3ccc(Cl)cc3Cl)c1-c1ccc(CCCCC(F)(F)F)cc1)CCN(N1CCCCC1)C2=O [Example 4, 1-(2,4-dichlorophenyl)-3-methyl-5-piperidin-1-yl-2-[4-(5,5,5-trifluoropentyl)phenyl]-1,5,6,7-tetrahydro-4H-pyrrolo[3,2-c]pyridin-4-one]	–

— patent publication US20080262026A1, “Therapeutic Agents 684” (AstraZeneca AB, priority 2007, published 2008)
